Laboratory results from PMC9688530, “Development of Ic-ELISA and Colloidal Gold Lateral Flow Immunoassay for the Determination of Cypermethrin in Agricultural Samples” (Biosensors, 2022).
Converted amounts (≈) assume the structure as drawn.

Assays:
[1] = parameters: method as in doi:10.11895/j.issn.0253-3820.160428; details: cited from earlier work
[2] = tested on: anti-CYP mAb 2G7H9; assay: ic-ELISA based on mAb 2G7H9; assay type: binding, mouse
Protocol: (§1) The ic-ELISA procedure was executed according to previous studies. Each well of the ELISA plate was coated with 100 μL of coating antigen diluted with carbonate buffer (0.05 mol/L, pH 9.6) at 4 °C overnight. After washing three times with phosphate-buffered saline (PBS, 0.01 mol/L, pH 7.4) containing 1‰ Tween-20, the wells were blocked with 200 μL of 5% skim milk powder in PBS at 37 °C for two hours. After the same washing procedure, 50 μL of CYP standard solution and 50 μL of mAb were pipetted into each well and incubated at 37 °C for one hour. After washing five times, 100 μL per well of 0.5‰ horseradish peroxidase-labeled goat anti-mouse IgG antibody in PBS was added and incubated at 37 °C for one hour. After the wells were washed five times, 100 μL per well of fresh substrate solution (0.1 mg/mL 3,3′,5,5′-tetramethylbenzidine and 0.024‰ H2O2 in 0.1 M citrate acid buffer) was added to react at 37 °C for 15 min. Then, 50 μL per well of 0.2 mol/L H2SO4 was used to stop the reaction, and the absorbances were read at 450 nm with a microplate reader.
Under the optimal conditions, a standard curve was constructed using a series of concentrations of standard solutions (50, 25, 12.5, 6.25, 3.13, 1.56, 0.78, 0.39 and 0.20 ng/mL) to assess the sensitivity of ic-ELISA. The IC50 and linear range (IC10–IC90) were calculated by a logistic equation established with Origin Pro 8.0.
The CRs of the ic-ELISA were calculated with the following equation:CR (%) = (IC50 of CYP/IC50 of analogues) × 100%.

[3] = tested on: anti-CYP mAb 2G9A8; assay: homologous ic-ELISA, hapten 1 coating antigen, mAb 2G9A8; assay type: binding, mouse; details: hapten 1 as coating antigen
Protocol: as §1
After five immunizations, the anti-serum of five mice was collected to determine the serum titer. All mouse serum had high titers ranging from 1:64,000 to 1:256,000. […] Then, the sensitivity of these monoclonal antibodies was evaluated by homologous ic-ELISA. […] The subtype of mAb 2G7H9 was determined as IgG2b by a kit. […]

For `CC1(C)C(C=C(Cl)Cl)C1C(=O)OC(C#N)c1cccc(Oc2ccccc2)c1` (stereo not shown) [CYP, Cypermethrin], the sensitivity [1] is given as 5000 ng/mL, the IC50 ([2]; hapten 5-BSA as coating antigen, before buffer optimization) is given as 5.75 ng/mL (≈ 0.0138 µM) and the IC50 ([2]; homologous ic-ELISA, hapten 1 as coating antigen) is given as 19.14 ng/mL (≈ 0.046 µM). For the same molecule, the IC50 ([2]; homologous ic-ELISA, hapten 1 as coating antigen, listed as Cypermethrin) was 19 ng/mL (≈ 0.0456 µM), the “limit of detection (IC10)” value ([2]; optimal conditions) was 0.40 ng/mL and the “linear range (IC10–IC90)” value ([2]; optimal conditions) was 0.40 to 7.87 ng/mL. For the same molecule, the IC50 ([2]; optimal conditions, coating antigen hapten 5-BSA, PBS pH 7.4, 10% methanol, 0.3 mol/L NaCl) was 2.49 ng/mL (≈ 0.00598 µM), the IC50 ([2]; working buffer: 10% Acetone) was 7.99 ng/mL (≈ 0.0192 µM) and the IC50 ([2]; working buffer: 10% Acetonitrile) was 8.88 ng/mL (≈ 0.0213 µM). It also gave an IC50 ([2]; working buffer: 10% Dimethyl sulfoxide) of 11.03 ng/mL (≈ 0.0265 µM), an IC50 ([2]; working buffer: 10% Methanol (solvent type comparison)) of 7.67 ng/mL (≈ 0.0184 µM) and an IC50 ([2]; working buffer: Methanol 5%) of 30.63 ng/mL (≈ 0.0736 µM). For the same molecule, the IC50 ([2]; working buffer: Methanol 20%) was 20.59 ng/mL (≈ 0.0495 µM), the IC50 ([2]; working buffer: Methanol 40%) was 24.47 ng/mL (≈ 0.0588 µM) and the IC50 ([2]; working buffer: Na+ 0.07 mol/L) was 43.31 ng/mL (≈ 0.104 µM). For the same molecule, the IC50 ([2]; working buffer: Na+ 0.14 mol/L) was 9.22 ng/mL (≈ 0.0221 µM), the IC50 ([2]; working buffer: Na+ 0.2 mol/L) was 13.58 ng/mL (≈ 0.0326 µM) and the IC50 ([2]; working buffer: Na+ 0.3 mol/L) was 2.42 ng/mL (≈ 0.00581 µM). For the same molecule, the IC50 ([2]; working buffer: Na+ 0.4 mol/L) was 2.94 ng/mL (≈ 0.00706 µM), the IC50 ([2]; working buffer: pH 6) was 4.41 ng/mL (≈ 0.0106 µM) and the IC50 ([2]; working buffer: pH 7) was 5.24 ng/mL (≈ 0.0126 µM). It also gave an IC50 ([2]; working buffer: pH 7.4) of 3.09 ng/mL (≈ 0.00742 µM), an IC50 ([2]; working buffer: pH 8) of 8.06 ng/mL (≈ 0.0194 µM) and an IC50 ([2]; working buffer: pH 9) of 4.03 ng/mL (≈ 0.00968 µM). For the same molecule, the IC50 [3] was 176 ng/mL (≈ 0.423 µM).
